# Measurements from patent US8232288B2, “Substituted benzimidazoles, benzothiazoles and benzoxazoles” (Gruenenthal GmbH, priority 2009, dated 2012).
# Assays:
# [1] = molecular target: T1, B1R receptor of the rat (rB1R) (Rattus norvegicus, UniProt P97583); experiment: Functional investigation on the bradykinin receptor 1 (B1R), FLIPR Ca2+ assay, rB1R cells; assay type: cell-based
# T1 construct: expressed in transfected cells; host or cells: CHO K1 cells
# T1 sequence (P97583 1-337): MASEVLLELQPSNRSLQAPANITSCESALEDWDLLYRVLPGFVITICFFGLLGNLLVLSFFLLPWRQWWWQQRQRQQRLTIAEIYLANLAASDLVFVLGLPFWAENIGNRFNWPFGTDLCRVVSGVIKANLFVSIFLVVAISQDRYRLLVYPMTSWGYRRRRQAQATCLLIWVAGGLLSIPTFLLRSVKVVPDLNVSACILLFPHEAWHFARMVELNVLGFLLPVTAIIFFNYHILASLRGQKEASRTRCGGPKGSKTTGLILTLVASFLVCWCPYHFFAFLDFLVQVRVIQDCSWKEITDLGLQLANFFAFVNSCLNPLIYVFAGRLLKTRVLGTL
# Protocol: (§1) The agonistic or antagonistic action of substances can be quantified on the bradykinin receptor 1 (B1R) of the human and rat species with ectopically expressing cell lines (CHO K1 cells) and with the aid of a Ca^2+-sensitive dyestuff (Fluo-4) in a fluorescent imaging plate reader (FLIPR). The figure in % activation is based on the Ca^2+ signal after addition of Lys-Des-Arg^9-bradykinin (0.5 nM) or Des-Arg^9-bradykinin (100 nM). Antagonists lead to a suppression of the Ca^2+ inflow after addition of the agonist. % inhibition compared with the maximum achievable inhibition is stated.
# (§2) The agonistic or antagonistic action of substances can be determined on the bradykinin receptor 1 (B1R) of the human and rat species with the following assay. In accordance with this assay, the Ca^2+ inflow through the channel is quantified with the aid of a Ca^2+-sensitive dyestuff (type Fluo-4, Molecular Probes Europe BV, Leiden Holland) in a fluorescent imaging plate reader (FLIPR, Molecular Devices, Sunnyvale, USA).
# (§3) Chinese hamster ovary cells (CHO K1 cells) transfected stably with the human B1R gene (hB1R cells) or the B1R gene of the rat (rB1R cells) are used. For functional studies, these cells are plated out on black 96-well plates with a clear base (BD Biosciences, Heidelberg, Germany or Greiner, Frickenhausen, Germany) in a density of 20,000-35,000 cells/well. The cells are left overnight at 37° C. and 5% CO2 in culture medium (hB1R cells: Nutrient Mixture Ham's F12, Gibco Invitrogen GmbH, Karlsruhe, Germany or DMEM, Sigma-Aldrich, Taufkirchen, Germany; rB1R cells: D-MEM/F12, Gibco Invitrogen GmbH, Karlsruhe, Germany) with 10 vol. % FBS (foetal bovine serum, Gibco Invitrogen GmbH, Karlsruhe, Germany or PAN Biotech GmbH, Aidenbach, Germany). On the following day, the cells are loaded for 60 min at 37° C. with 2.13 μM Fluo-4 (Molecular Probes Europe BV, Leiden Holland) in HBSS buffer (Hank's buffered saline solution, Gibco Invitrogen GmbH, Karlsruhe, Germany) with 2.5 mM probenecid (Sigma-Aldrich, Taufkirchen, Germany) and 10 mM HEPES (Sigma-Aldrich, Taufkirchen, Germany). The plates are then washed 2× with HBSS buffer, and HBSS buffer which additionally contains 0.1% BSA (bovine serum albumin; Sigma-Aldrich, Taufkirchen, Germany), 5.6 mM glucose and 0.05% gelatine (Merck KGaA, Darmstadt, Germany) is added. After a further incubation of 20 minutes at room temperature, the plates are inserted into the FLIPR for the Ca^2+ measurement.
# (§4) Alternatively, the plates are washed with buffer A (15 mM HEPES, 80 mM NaCl, 5 mM KCl, 1.2 mM CaCl2, 0.7 mM MgSO4, 2 g/l glucose, 2.5 mM probenecid), buffer A is added and the plates are loaded with 2.5 μM Fluo-4 and 0.025% Pluronic F127 (Sigma-Aldrich, Taufkirchen, Germany). Thereafter, the cells are washed 2× with buffer A and incubated for 30 minutes at room temperature with buffer A, which additionally contains 0.05% BSA and 0.05% gelatine, and thereafter inserted into the FLIPR for the Ca^2+ measurement.
# (§5) The Ca^2+-dependent fluorescence is measured here before and after addition of substances (λex=488 nm, λem=540 nm). Quantification is by measurement of the highest fluorescence intensity (FC, fluorescence counts) over time.
# (§6) The FLIPR protocol consists of 2 additions of substance. Test substances (10 μM) are first pipetted on to the cells and the Ca^2+ inflow is compared with the control (hB1R: Lys-Des-Arg^9-bradykinin>=50 nM; rB1R: Des-Arg^9-bradykinin 10 μM). This gives the result in % activation based on the Ca^2+ signal after addition of Lys-Des-Arg^9-bradykinin (>=50 nM) or Des-Arg^9-bradykinin (10 μM). After incubation for 10-20 minutes, Lys-Des-Arg^9-bradykinin (hB1R) or Des-Arg^9-bradykinin (rB1R) in the concentration of the EC80 is applied and the inflow of Ca^2+ is likewise determined. Antagonists lead to a suppression of the Ca^2+ inflow. % inhibition compared with the maximum achievable inhibition is calculated.
# (§7) In order to determine the IC50 value, the substances are added in various concentrations. […]
# [2] = molecular target: T2, human B1R receptor (hB1R) (Homo sapiens, UniProt P46663); experiment: Functional investigation on the bradykinin receptor 1 (B1R), FLIPR Ca2+ assay, hB1R cells; assay type: cell-based
# T2 construct: expressed in transfected cells; host or cells: CHO K1 cells
# T2 sequence (P46663 1-353): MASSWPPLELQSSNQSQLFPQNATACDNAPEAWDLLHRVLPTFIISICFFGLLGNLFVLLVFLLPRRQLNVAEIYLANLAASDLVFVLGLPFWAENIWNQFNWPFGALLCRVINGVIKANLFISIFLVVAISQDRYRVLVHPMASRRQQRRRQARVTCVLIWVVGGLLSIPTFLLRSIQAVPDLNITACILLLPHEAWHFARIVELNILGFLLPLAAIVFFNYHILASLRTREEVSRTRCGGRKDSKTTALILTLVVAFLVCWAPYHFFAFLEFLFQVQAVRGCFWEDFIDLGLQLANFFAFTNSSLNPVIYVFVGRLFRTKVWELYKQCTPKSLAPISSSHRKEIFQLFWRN
# Protocol: as §1, §2, §3, §4, §5, §6, §7
inhibition at 10 µM [1] [%],inhibition at 10 µM [2] [%],Structure (SMILES)
89,91,"COc1cc(C)c(S(=O)(=O)N(C)C(C)c2nc3cccc(C(=O)N4CCC5(CCN(Cc6ccccn6)CC5)CC4)c3[nH]2)c(C)c1 (stereo not shown) [I_CC-26, 4-Methoxy-N,2,6-trimethyl-N-[1-[7-[9-(pyridin-2-yl-methyl)-3,9-diazaspiro[5.5]undecane-3-carbonyl]-1H-benzoimidazol-2-yl]-ethyl]-benzenesulfonic acid amide]"
102,100,"CN(Cc1nc2ccc(C(=O)N3CCC4(CC3)CCN(c3ccncc3)CC4)cc2[nH]1)S(=O)(=O)c1ccccc1C(F)(F)F [I_24, N-methyl-N-[[6-(9-pyridin-4-yl-3,9-diazaspiro[5.5]undecane-3-carbonyl)-1H-benzoimidazol-2-yl]-methyl]-2-(trifluoromethyl)-benzenesulfonic acid amide]"
90,76,"COc1cc(C)c(S(=O)(=O)N(C)C(C)c2nc3cccc(C(=O)N4CCC5(CCN(Cc6c(C)noc6C)CC5)CC4)c3[nH]2)c(C)c1 (stereo not shown) [I_CC-42, N-[1-[7-[9-[(3,5-Dimethyl-isoxazol-4-yl)-methyl]-3,9-diazaspiro[5.5]undecane-3-carbonyl]-1H-benzoimidazol-2-yl]-ethyl]-4-methoxy-N,2,6-trimethyl-benzenesulfonic acid amide]"
97,100,"Cc1cccc(Cl)c1S(=O)(=O)N(C)Cc1nc2cccc(C(=O)N3CCC4(CC3)CCN(c3ccncc3)C4)c2[nH]1 [I_CC-07, 2-chloro-N,6-dimethyl-N-[[7-(3-pyridin-4-yl-3,8-diazaspiro[4.5]decane-8-carbonyl)-1H-benzoimidazol-2-yl]-methyl]-benzenesulfonic acid amide]"

# More lines, now with the values behind:
Structure (SMILES),inhibition at 10 µM [1] [%],inhibition at 10 µM [2] [%]
"COc1cc(C)c(S(=O)(=O)N(C)C(C)c2nc3cccc(C(=O)N4CCC5(CCN(C(=O)c6cccnc6SC)CC5)CC4)c3[nH]2)c(C)c1 (stereo not shown) [I_CC-48, 4-Methoxy-N,2,6-trimethyl-N-[1-[7-[9-(2-methylsulfanyl-pyridine-3-carbonyl)-3,9-diazaspiro[5.5]undecane-3-carbonyl]-1H-benzoimidazol-2-yl]-ethyl]-benzenesulfonic acid amide]",89,61
"COc1cc(C)c(S(=O)(=O)N(C)C(C)c2nc3cccc(C(=O)N4CCC5(CCN(Cc6csnn6)CC5)CC4)c3[nH]2)c(C)c1 (stereo not shown) [I_CC-38, 4-Methoxy-N,2,6-trimethyl-N-[1-[7-[9-([1,2,3]thiadiazol-4-yl-methyl)-3,9-diazaspiro[5.5]undecane-3-carbonyl]-1H-benzoimidazol-2-yl]-ethyl]-benzenesulfonic acid amide]",97,85
"COc1cc(C)c(S(=O)(=O)N(C)C(C)c2nc3cccc(C(=O)N4CCC5(CCN(C(=O)c6ccc(F)cc6F)CC5)CC4)c3[nH]2)c(C)c1 (stereo not shown) [I_CC-53, N-[1-[7-[9-(2,4-Difluoro-benzoyl)-3,9-diazaspiro[5.5]undecane-3-carbonyl]-1H-benzoimidazol-2-yl]-ethyl]-4-methoxy-N,2,6-trimethyl-benzenesulfonic acid amide]",88,85
"COc1cc(C)c(S(=O)(=O)N(C)c2nc3c(C(=O)N4CCC5(CC4)CCN(c4ccncc4)CC5)cccc3s2)c(C)c1 [I_CC-19, 4-methoxy-N,2,6-trimethyl-N-[4-(3-pyridin-4-yl-3,9-diazaspiro[5.5]undecane-9-carbonyl)-benzothiazol-2-yl]-benzenesulfonic acid amide]",80,54
"COc1cc(C)c(S(=O)(=O)N(C)Cc2nc3cccc(CC(=O)N4CCC5(CC4)CCN(c4ccncc4)CC5)c3[nH]2)c(C)c1 [I_21, 4-methoxy-N,2,6-trimethyl-N-[[7-[2-oxo-2-(9-pyridin-4-yl-3,9-diazaspiro[5.5]undecan-3-yl)-ethyl]-1H-benzoimidazol-2-yl]-methyl]-benzenesulfonic acid amide]",55,99
"CN(Cc1nc2cccc(C(=O)N3CCC4(CC3)CCN(c3ccncc3)CC4)c2[nH]1)S(=O)(=O)c1cccc2ccccc12 [I_07, N-methyl-N-[[7-(9-pyridin-4-yl-3,9-diazaspiro[5.5]undecane-3-carbonyl)-1H-benzoimidazol-2-yl]-methyl]-naphthalene-1-sulfonic acid amide]",96,98
"COc1cc(C)c(S(=O)(=O)N(C)c2nc3cccc(C(=O)N4CCC5(CC4)CCN(c4ccncc4)C5)c3n2C)c(C)c1 [I_CC-15, 4-methoxy-N,2,6-trimethyl-N-[1-methyl-7-(3-pyridin-4-yl-3,8-diazaspiro[4.5]decane-8-carbonyl)-1H-benzoimidazol-2-yl]-benzenesulfonic acid amide]",99,97
"Cc1cc(S(=O)(=O)N(C)Cc2nc3cccc(C(=O)N4CCC5(CC4)CCN(c4ccncc4)C5)c3[nH]2)c(C)cc1Cl [I_CC-10, 4-chloro-N,2,5-trimethyl-N-[[7-(3-pyridin-4-yl-3,8-diazaspiro[4.5]decane-8-carbonyl)-1H-benzoimidazol-2-yl]-methyl]-benzenesulfonic acid amide]",88,94
"COc1cc(C)c(S(=O)(=O)N(C)CCc2nc3c(C(=O)N4CCC5(CC4)CCN(c4ccncc4)CC5)cccc3[nH]2)c(C)c1 [I_02, 4-methoxy-N,2,6-trimethyl-N-[2-[4-(9-pyridin-4-yl-3,9-diazaspiro[5.5]undecane-3-carbonyl)-1H-benzoimidazol-2-yl]-ethyl]-benzenesulfonic acid amide]",100,97
"CN(Cc1nc2cccc(C(=O)N3CCC4(CC3)CCN(c3ccncc3)CC4)c2[nH]1)C(=O)c1ccccc1Cl [I_CC-04, 2-chloro-N-methyl-N-[[7-(3-pyridin-4-yl-3,9-diazaspiro[5.5]undecane-9-carbonyl)-1H-benzoimidazol-2-yl]-methyl]-benzamide]",102,65
